Values of other authors in US20100099776A1, “OILY SUSPENSION OF ATOVAQUONE” (RANBAXY LABORATORIES LIMITED, priority 2008, published 2010).

Conditions: single oral dose

O=C1C(O)=C([C@H]2CC[C@H](c3ccc(Cl)cc3)CC2)C(=O)c2ccccc21 [Atovaquone, 244-(4-chlorophenyl)cyclohexyl′-3-hydroxy-1,4-naphthoquinone]
dose above which absorption is dose-limited: above 750 mg
increase of absorption by the presence of fatty food (with fatty food): about three-fold
